Test system: récepteurs surrénaliens de l'angiotensine II
Test: Displacement of radioligand [125I]-SIAII specifically bound to adrenal angiotensin II receptors (rat adrenal homogenate)
Format: binding
Settings: 60 min, 25°C
Description: L'affinité des produits des exemples pour les récepteurs de l'angiotensine II est évaluée par technique de déplacement d'un radioligand spécifiquement fixé sur les récepteurs surrénaliens de l'angiotensine Il, chez le rat.
Une aliquote d'un homogénat de surrénales de rat incube en présence d'une concentration unique de [^125I]-SIAII (Sar^1, Tyr^4, Ile^8 - angiotensine II), antagoniste des récepteurs de l'angiotensine II, et de deux concentrations d'agents compétiteurs (10^-5 M, 10-^7 M) durant 60 min à 25°C.
La réaction est achevée par ajout de tampon, puis rapide filtration à travers des filtres de papier de verre. La liaison non spécifique est déterminée en présence d'angiotensine Il.
Les résultats sont exprimés, pour les concentrations testées, en pourcentage de déplacement du radioligand spécifiquement fixé sur les récepteurs surrénaliens de l'angiotensine Il.

Row | Structure (SMILES) | % de déplacement du ligand marqué (competitor 1E-5 M, 10 µM) [%] | % de déplacement du ligand marqué (competitor 1E-7 M, 0.1 µM) [%]
1 | CCCc1nn(C)c(OCCO)c1Cc1ccc(-c2ccccc2C(=O)O)cc1 [Exemple 137, [Méthyl-1 n-Propyl-3 (carboxy-2'blphényl-yl-4)méthyl-4 pyrazol-yl-5]oxy-2 éthanol] | 63 | 5
2 | CCCc1nn(C)c(OCC(=O)OCC)c1Cc1ccc(-c2ccsc2-c2nnn[nH]2)cc1 [Exemple 141, [Méthyl-1 n-propyl-3 [[(tétrazolyl-5)-2 thiényl-3]-4 benzyl]-4 pyrazol-yl-5] oxy acétate d'éthyle] | 64 | 9
3 | CCCc1nn(C)c(OCCO)c1Cc1ccc(-c2ccsc2C(=O)O)cc1 [Exemple 145, [Méthyl-1 n-Propyl-3 [(carboxy-2 thiényl-3)-4 benzyl]-4 pyrazol-yl-5] oxy-2 éthanol] | 53 | 0

Source: patent EP0449699A2, “Pyrazole derivatives as angiotensin II-receptor antagonists, process for their preparation and pharmaceutical compositions containing them” (LABORATOIRES UPSA, priority 1990, dated 1991)
